Patent publication US8178506B2, “Oligomeric compounds and compositions for use in modulation of small non-coding RNAs” (Regulus Therapeutics Inc., priority 2003, dated 2012)
In the oligonucleotide strings, read from the 5' end, every base follows the letter of its sugar. An asterisk marks phosphorothioate; unmarked linkages are phosphodiester. Other units and linkages are bracketed, terminal groups are in braces. A string of capitals states the bases alone. e = 2'-O-(2-methoxyethyl) (MOE); [5mC] = 5-methylcytosine; d = 2'-deoxy (DNA)

Tested on: HeLa cells
Test: Cell cycle assay in HeLa cells
Format: cell-based, human
Conditions: for % cells aneuploid / % cells in cell cycle phase G1 / % cells in cell cycle phase G2/M / % cells in cell cycle phase S / % cells in cell cycle phase subG1 / % cells in cell cycle phase: G1 / % cells in cell cycle phase: G2/M / % cells in cell cycle phase: S / % cells in cell cycle phase: aneuploid / % cells in cell cycle phase: subG1 / % cells in cell cycle phase aneuploid: HeLa cells; for % cells in cell cycle phase: G1 / % cells in cell cycle phase: G2/M / % cells in cell cycle phase: S / % cells in cell cycle phase: aneuploid / % cells in cell cycle phase: subG1: 48 hours after treatment, relative to untreated control (UTC=100); for phase of the cell cycle in which cells arrest or delay: HeLa
Method: In some embodiments, HeLa cells were plated on collagen-coated 24-well plates at 50,000-60,000 cells per well, and allowed to attach to wells overnight. In some embodiments, HeLa cells were synchronized by double thymidine block (cells were washed three times with PBS, then grown in 10% FBS containing 2 mM thymidine; then 19 hours later, cells were washed three times in PBS, 10% FBS for 9 hours; cells were then incubated in 10% FBS, 2 mM thymidine for 15 hours; then washed three times with PBS, 10% FBS and samples were taken every two hours over a 16 hour period). A portion of each time sample was fixed with ethanol and treated with propidium iodide and subjected to FACs analysis for determination of the percentage of cells in each phase of the cell cycle. […] HeLa cells treated with 10 μM cisplatin or 100 ng/ml nocodazole were used as controls for G1-phase and late G2/M-phases, respectively. From the remaining portion of each of these time samples, total RNA was isolated and used to assess the expression of cell cycle marker mRNAs using the real-time RT-PCR methods and/or used to screen microarrays to assess the expression of miRNAs over the course of the cell cycle. It was observed that several miRNAs are expressed in a cell-cycle-dependent manner. Shown in Table 30 are the mRNA levels of the E2F1 transcription factor and topoisomerase 2A (Top2A), which vary over the course of the cell cycle and can be used for comparison to the experimental groups for the confirmation of cell cycle phase. Data are an average of three trials.
In some embodiments, HeLa cells were also treated with oligomeric compounds targeting miRNAs. […] The medium was removed from the plates. Each well was washed in 250 μl of PBS. […] Control cells received LIPOFECTIN™ only. […] After 24 hours (Table 31) or 48 hours (Table 32), cells were prepared for flow cytometry analysis to generate a cell cycle profile. The cell cycle profile was analyzed with the ModFit program (Verity Software House, Inc., Topsham Me.).
The random-mer ISIS 29848 (SEQ ID NO: 737) was used as a negative control, and ISIS 183891 (SEQ ID NO: 847), targeting kinesin-like 1/Eg5, was included as a positive control. Data are expressed as percentage of cells in each phase relative to the untreated control (UTC); values above 100 are considered to indicate a delay or arrest in that phase of the cell cycle. […] In some cases, the same oligomeric compound was tested in repeated experiments.
In accordance with the present invention, certain oligomeric compounds targeting miRNAs were selected for dose response studies. Using the cell cycle assay described above, the cell cycle profiles of HeLa or A549 cells treated with varying concentrations of oligomeric compounds of the present invention were assessed.
HeLa cells were treated with 25-, 50-, 100- or 150 nM of the oligomeric compounds ISIS
Numbers 327902 (SEQ ID NO: 320) and 328383 (SEQ ID NO: 492), both targeted against mir-192, and ISIS 327905 (SEQ ID NO: 323), targeting mir-205, and ISIS 328403 (SEQ ID NO: 512), targeting mir-106. Cells treated with increasing concentrations of oligomeric compounds were compared to untreated cells, to assess the dose-dependency of the observed delay or arrest. The random-mer ISIS 29848 was used as a negative control. Cells were prepared for flow cytometry 48-hours after oligonucleotide treatment, as described, supra.

[1] = 150 nM oligomeric compound, 24 hours, relative to untreated control (UTC = 100)
[2] = 150 nM, 48 hours, relative to untreated control

| Substance | % cells aneuploid [1] | % cells in cell cycle phase G1 [1] | % cells in cell cycle phase G2/M [1] | % cells in cell cycle phase S [1] | % cells in cell cycle phase subG1 [1] | % cells in cell cycle phase: G1 (150 nM oligomeric compound) | % cells in cell cycle phase: G2/M (150 nM oligomeric compound) | % cells in cell cycle phase: S (150 nM oligomeric compound) | % cells in cell cycle phase: aneuploid (150 nM oligomeric compound) | % cells in cell cycle phase: subG1 (150 nM oligomeric compound) | phase of the cell cycle in which cells arrest or delay (150 nM, 48 hours) | % cells in cell cycle phase G1 [2] | % cells in cell cycle phase G2/M [2] | % cells in cell cycle phase S [2] | % cells in cell cycle phase aneuploid [2] | % cells in cell cycle phase subG1 [2] | phase of the cell cycle in which cells arrest or delay (150 nM, 24 hours) |
| --- | --- | --- | --- | --- | --- | --- | --- | --- | --- | --- | --- | --- | --- | --- | --- | --- | --- |
| 338756 (antisense TGCCCTGCTCAGAGCCCTAG; all 2'-MOE, all phosphorothioate, methylation of C not given here) [compound 338756] | 166% | 147% | 99% | 75% | 137% | 90% | 100% | 121% | 169% | 311% |  |  |  |  |  |  |  |
| ISIS 341787: SEQ ID NO: 852, targeted against mir-125a (mouse) (CACAGGTTAAAGGGTCTCAGGGA; all 2'-MOE, all phosphorothioate, methylation of C not given here) |  |  |  |  |  |  |  |  |  |  | arrest or delay in G2/M as well as an increased percentage of cells in the subG1 and aneuploid categories |  |  |  |  |  |  |
| 338666 (antisense TCACGTGGAGAGGAGTTAAA; all 2'-MOE, all phosphorothioate, methylation of C not given here) [compound 338666] | 102% | 123% | 158% | 63% | 235% | 44% | 217% | 136% | 125% | 1832% |  | 92% | 130% | 98% | 151% | 214% |  |
| ISIS 328403: 5-10-5 2′-MOE gapmer PS; SEQ ID NO 512; targets mir-106 pri-miRNA (eA*eG*eG*e[5mC]*e[5mC]*dT*dA*dT*dT*d[5mC]*d[5mC]*dT*dG*dT*dA*eG*e[5mC]*eA*eA*eA) [5-10-5 2′-MOE gapmer PS; targets mir-106 pri-miRNA] |  |  |  |  |  |  |  |  |  |  | S- and G2/M-phases |  |  |  |  |  | G2/M-phase |
| 338833 (antisense TCGTGCACCTGAGGAGTCTG; all 2'-MOE, all phosphorothioate, methylation of C not given here) [compound 338833] | 185% | 150% | 142% | 56% | 232% | 44% | 258% | 106% | 154% | 1091% |  | 87% | 136% | 100% | 136% | 255% |  |
| 341787 (antisense CACAGGTTAAAGGGTCTCAGGGA; all 2'-MOE, all phosphorothioate, methylation of C not given here) [compound 341787] | 165% | 113% | 144% | 75% | 221% | 55% | 197% | 126% | 153% | 707% |  | 88% | 145% | 96% | 177% | 324% |  |
| 328676 (eA*e[5mC]*e[5mC]*eT*e[5mC]*d[5mC]*d[5mC]*dA*dG*d[5mC]*d[5mC]*dA*dA*dT*d[5mC]*e[5mC]*eA*eT*eG*eT; antisense) [compound 328676] | 169% | 99% | 134% | 86% | 139% | 86% | 118% | 118% | 172% | 366% |  |  |  |  |  |  |  |
| 328727 (antisense e[5mC]*eT*eG*e[5mC]*eT*d[5mC]*d[5mC]*dA*dG*dA*dG*d[5mC]*d[5mC]*d[5mC]*dG*eA*eG*eT*e[5mC]*eG) [compound 328727] | 161% | 133% | 105% | 81% | 245% | 68% | 124% | 152% | 140% | 846% |  |  |  |  |  |  |  |
| CAGACTCCGGTGGAATGAAGGA (anti-miR; chemistry not fully specified) [ISIS 327905, uniform 2′-MOE PS; targets mir-205] |  |  |  |  |  |  |  |  |  |  | S-phase |  |  |  |  |  |  |
| 328724 (antisense eG*eA*e[5mC]*eA*eT*d[5mC]*dA*dT*dG*dT*dG*dA*dT*dT*dT*eG*e[5mC]*eT*e[5mC]*eA) [compound 328724] | 197% | 91% | 135% | 90% | 155% | 70% | 140% | 134% | 155% | 653% |  |  |  |  |  |  |  |
| 338690 (antisense TAGACAAAAACAGACTCTGA; all 2'-MOE, all phosphorothioate, methylation of C not given here) [compound 338690] | 194% | 124% | 123% | 78% | 149% | 91% | 112% | 110% | 190% | 413% |  |  |  |  |  |  |  |
| 345373 (AGCCTATCCTGGATTACTTGAA; sugars from the 5' end e5 d10 e7, all phosphorothioate, methylation of C not given here) [compound 345373] | 68% | 66% | 176% | 94% | 196% | 75% | 145% | 132% | 119% | 116% |  |  |  |  |  |  |  |
| 338741 (antisense GCTTCACAATTAGACCATCC; all 2'-MOE, all phosphorothioate, methylation of C not given here) [compound 338741] | 166% | 141% | 112% | 73% | 157% | 100% | 99% | 101% | 170% | 185% |  |  |  |  |  |  |  |
